Data taken from patent US9796733B2, “Imidazo-pyrazine derivatives useful as soluble guanylate cyclase activators” (Merck Sharp & Dohme Corp., priority 2014, dated 2017).

Key:
sGC α1/β1 heterodimer = biological target: T1, sGC α1/β1 heterodimer (Homo sapiens, UniProt Q02108+Q02153); test: Cell-based sGC functional assay (CASA assay): cGMP generation in CHO-K1/sGC cells, HTRF detection; conditions: for Emax: CHO-K1, percent activation relative to standard Compound A in CHO-K1/sGC cells, read-out: % Act.; for EC50: inflection point (IP) of cGMP generation in CHO-K1/sGC cells, 4P fit, activity expressed as percentage of Compound A
T1 construct: expressed in transfected cells; host or cells: CHO-K1 (clone #7, CHO-K1/sGC)
T1 sequence (Q02108 1-690): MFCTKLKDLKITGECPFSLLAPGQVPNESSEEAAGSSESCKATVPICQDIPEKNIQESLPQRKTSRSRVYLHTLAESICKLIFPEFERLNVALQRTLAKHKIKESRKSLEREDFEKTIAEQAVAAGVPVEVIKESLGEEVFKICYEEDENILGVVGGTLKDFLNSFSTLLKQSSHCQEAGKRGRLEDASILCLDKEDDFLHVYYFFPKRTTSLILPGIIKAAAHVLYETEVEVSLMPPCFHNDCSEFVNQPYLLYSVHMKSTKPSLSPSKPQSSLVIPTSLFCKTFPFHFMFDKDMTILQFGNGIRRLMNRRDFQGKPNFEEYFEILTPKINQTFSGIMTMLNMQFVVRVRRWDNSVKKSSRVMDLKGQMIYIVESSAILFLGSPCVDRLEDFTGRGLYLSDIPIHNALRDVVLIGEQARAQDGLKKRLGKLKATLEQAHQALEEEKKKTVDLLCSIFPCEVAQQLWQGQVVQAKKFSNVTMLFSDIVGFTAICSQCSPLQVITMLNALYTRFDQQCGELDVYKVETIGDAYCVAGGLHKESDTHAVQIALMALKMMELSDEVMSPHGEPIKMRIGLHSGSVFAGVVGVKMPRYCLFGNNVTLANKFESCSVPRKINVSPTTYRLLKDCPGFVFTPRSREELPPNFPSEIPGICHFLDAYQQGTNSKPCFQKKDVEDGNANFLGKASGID
T1 sequence (Q02153 1-619): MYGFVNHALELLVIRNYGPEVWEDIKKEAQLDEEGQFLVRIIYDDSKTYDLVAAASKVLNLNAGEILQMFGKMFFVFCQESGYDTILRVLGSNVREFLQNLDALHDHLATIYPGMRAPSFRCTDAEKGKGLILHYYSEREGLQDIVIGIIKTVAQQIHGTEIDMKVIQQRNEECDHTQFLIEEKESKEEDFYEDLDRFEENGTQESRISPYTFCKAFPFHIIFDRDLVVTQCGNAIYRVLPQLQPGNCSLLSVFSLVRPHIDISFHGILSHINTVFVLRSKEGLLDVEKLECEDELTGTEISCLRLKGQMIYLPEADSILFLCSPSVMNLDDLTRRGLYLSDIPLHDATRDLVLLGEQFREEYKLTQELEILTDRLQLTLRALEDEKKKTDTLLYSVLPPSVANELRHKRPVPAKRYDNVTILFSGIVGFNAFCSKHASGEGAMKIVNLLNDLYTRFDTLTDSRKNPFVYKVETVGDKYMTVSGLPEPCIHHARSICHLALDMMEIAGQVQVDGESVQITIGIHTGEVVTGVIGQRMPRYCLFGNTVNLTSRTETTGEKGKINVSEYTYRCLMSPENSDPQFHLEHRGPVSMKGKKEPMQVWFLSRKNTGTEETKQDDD
In short: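 Stable CHO-K1/sGC cells in EBSS buffer with 5 mM MgCl2, 0.05% BSA and 0.5 mM IBMX were incubated with compound (2.5% DMSO final) ±1 μM DETA-NO for 1 hr at 37° C. cGMP was measured by HTRF. Activation is expressed as % of reference HDA Compound A maximum, with IP and max fold induction from a 4P fit.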

[1] = test system: Spontaneously hypertensive rats (SHR); test: Acute efficacy in spontaneously hypertensive rats (SHR): telemetry blood pressure lowering after a single oral dose; format: in vivo, rat
In short: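 Male SHR carrying aortic telemetry implants (14-day recovery) received a single oral gavage of compound or vehicle (10% transcutol/20% Cremophor/70% water). Conscious blood pressure was sampled 30 s every 10 min and averaged hourly; change was taken against the prior-day vehicle baseline, reported as maximum peak SBP decrease at a given PO dose (mpk).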

Emax (sGC α1/β1 heterodimer)	EC50 (sGC α1/β1 heterodimer)	SMILES	Maximum peak decrease of systolic blood pressure (SBP) in SHR, Cat. ([1]; P.O. 1.0 mpk)	Maximum peak decrease of systolic blood pressure (SBP) in SHR, Cat. ([1]; P.O. 0.3 mpk)	Maximum peak decrease of systolic blood pressure (SBP) in SHR, Cat. ([1]; P.O. 3.0 mpk)
92%	247 nM	CC1(c2ccc(OC(F)F)cn2)C(=O)Nc2nc(-c3cn4ccnc4c(CCCC(F)(F)F)n3)nc(N)c21 (stereo not drawn) [Example 214A, 4-amino-5-(5-(difluoromethoxy)pyridin-2-yl)-5-methyl-2-(8-(4,4,4-trifluorobutyl)imidazo[1,2-a]pyrazin-6-yl)-5H-pyrrolo[2,3-d]pyrimidin-6(7H)-one]	B (Category B=SBP in SHRs 20-40 mmHg)	–	–
107%	351 nM	CCC1(c2ccc(F)cc2)C(=O)Nc2nc(-c3cn4ccnc4c(CCCC(F)(F)F)n3)nc(N)c21 (stereo not drawn) [Example 215A, 4-amino-5-ethyl-5-(4-fluorophenyl)-2-(8-(4,4,4-trifluorobutyl)imidazo[1,2-a]pyrazin-6-yl)-5H-pyrrolo[2,3-d]pyrimidin-6(7H)-one]	–	B (Category B=SBP in SHRs 20-40 mmHg)	–
77%	146 nM	CCOc1ccc(C2(C)C(=O)Nc3nc(-c4cn5ccnc5c(CCCC(F)(F)F)n4)nc(N)c32)nc1 (stereo not drawn) [Example 216A, 4-amino-5-(5-ethoxypyridin-2-yl)-5-methyl-2-(8-(4,4,4-trifluorobutyl)imidazo[1,2-a]pyrazin-6-yl)-5H-pyrrolo[2,3-d]pyrimidin-6(7H)-one]	B (Category B=SBP in SHRs 20-40 mmHg)	–	–
82%	288 nM	Nc1nc(-c2cn3ccnc3c(CCCC(F)(F)F)n2)nc2c1C(c1ccc(F)cn1)(C1CC1)C(=O)N2 (stereo not drawn) [Example 217A, 4-amino-5-cyclopropyl-5-(5-fluoropyridin-2-yl)-2-(8-(4,4,4-trifluorobutyl)imidazo[1,2-a]pyrazin-6-yl)-5H-pyrrolo[2,3-d]pyrimidin-6(7H)-one]	C (Category C=SBP in SHRs>40 mmHg)	–	–
126%	253 nM	Nc1nc(-c2cn3ccnc3c(CCCC(F)(F)F)n2)nc2c1C(c1ccc(Cl)cn1)(C1CC1)C(=O)N2 (stereo not drawn) [Example 218B, 4-amino-5-(5-chloropyridin-2-yl)-5-cyclopropyl-2-(8-(4,4,4-trifluorobutyl)imidazo[1,2-a]pyrazin-6-yl)-5H-pyrrolo[2,3-d]pyrimidin-6(7H)-one]	C (Category C=SBP in SHRs>40 mmHg)	–	–
124%	53 nM	Nc1nc(-c2cn3ccnc3c(CCCC(F)(F)F)n2)nc2c1C(c1ccc(C(F)(F)F)cn1)(C1CC1)C(=O)N2 (stereo not drawn) [Example 219A, 4-amino-5-cyclopropyl-2-(8-(4,4,4-trifluorobutyl)imidazo[1,2-a]pyrazin-6-yl)-5-(5-(trifluoromethyl)pyridin-2-yl)-5H-pyrrolo[2,3-d]pyrimidin-6(7H)-one]	B (Category B=SBP in SHRs 20-40 mmHg)	–	–
100%	409 nM	CC1(c2ncccn2)C(=O)Nc2nc(-c3cn4ccnc4c(CCC(F)(F)C(F)(F)F)n3)nc(N)c21 (stereo not drawn) [Example 220B, 4-amino-5-methyl-2-(8-(3,3,4,4,4-pentafluorobutyl)imidazo [1,2-a]pyrazin-6-yl)-5-(pyrimidin-2-yl)-5H-pyrrolo[2,3-d]pyrimidin-6(7H)-one]	–	–	A (Category A=SBP in SHRs<20 mmHg)
107%	496 nM	Cc1ccc(C2(C)C(=O)Nc3nc(-c4cn5ccnc5c(CCC(F)(F)C(F)(F)F)n4)nc(N)c32)cn1 (stereo not drawn) [Example 221A, 4-amino-5-methyl-5-(6-methylpyridin-3-yl)-2-(8-(3,3,4,4,4-pentafluorobutyl)imidazo [1,2-a]pyrazin-6-yl)-5H-pyrrolo[2,3-d]pyrimidin-6(7H)-one]	A (Category A=SBP in SHRs<20 mmHg)	–	–
84%	177 nM	Nc1nc(-c2cn3ccnc3c(CCC(F)(F)C(F)(F)F)n2)nc2c1C(c1ccc(F)cn1)(C1CC1)C(=O)N2 (stereo not drawn) [Example 223A, 4-amino-5-cyclopropyl-5-(5-fluoropyridin-2-yl)-2-(8-(3,3,4,4,4-pentafluorobutyl)imidazo [1,2-a]pyrazin-6-yl)-5H-pyrrolo[2,3-d]pyrimidin-6(7H)-one]	B (Category B=SBP in SHRs 20-40 mmHg)	–	–
82%	166 nM	CC(C)c1ccc(C2(C)C(=O)Nc3nc(-c4cn5ccnc5c(CCC(F)(F)C(F)(F)F)n4)nc(N)c32)nc1 (stereo not drawn) [Example 225A, 4-amino-5-(5-isopropylpyridin-2-yl)-5-methyl-2-(8-(3,3,4,4,4-pentafluorobutyl)imidazo [1,2-a]pyrazin-6-yl)-5H-pyrrolo[2,3-d]pyrimidin-6(7H)-one]	A (Category A=SBP in SHRs<20 mmHg)	–	–
108%	20 nM	CC1(c2ccc(Cl)cn2)C(=O)Nc2nc(-c3cn4ccnc4c(CCC(F)(F)C(F)(F)F)n3)nc(N)c21 (stereo not drawn) [Example 228A, 4-amino-5-(5-chloropyridin-2-yl)-5-methyl-2-(8-(3,3,4,4,4-pentafluorobutyl)imidazo [1,2-a]pyrazin-6-yl)-5H-pyrrolo[2,3-d]pyrimidin-6(7H)-one]	–	B (Category B=SBP in SHRs 20-40 mmHg)	–
156%	50 nM	CC1(c2cccc(F)c2)C(=O)Nc2nc(-c3cn4ccnc4c(CCC(F)(F)C(F)(F)F)n3)nc(N)c21 (stereo not drawn) [Example 231A, 4-amino-5-(3-fluorophenyl)-5-methyl-2-(8-(3,3,4,4,4-pentafluorobutyl)imidazo [1,2-a]pyrazin-6-yl)-5H-pyrrolo[2,3-d]pyrimidin-6(7H)-one]	–	A (Category A=SBP in SHRs<20 mmHg)	–
60%	17 nM	CC1(c2ccccc2)C(=O)Nc2nc(-c3cn4ccnc4c(CCC(F)(F)C(F)(F)F)n3)nc(N)c21 (stereo not drawn) [Example 232B, 4-amino-5-methyl-2-(8-(3,3,4,4,4-pentafluorobutyl)imidazo [1,2-a]pyrazin-6-yl)-5-phenyl-5H-pyrrolo[2,3-d]pyrimidin-6(7H)-one]	C (Category C=SBP in SHRs>40 mmHg)	–	–
131%	43 nM	Nc1nc(-c2cn3ccnc3c(CCC(F)(F)C(F)(F)F)n2)nc2c1C(c1ccc(F)cc1)(C1CC1)C(=O)N2 (stereo not drawn) [Example 233B, 4-amino-5-cyclopropyl-5-(4-fluorophenyl)-2-(8-(3,3,4,4,4-pentafluorobutyl)imidazo [1,2-a]pyrazin-6-yl)-5H-pyrrolo[2,3-d]pyrimidin-6(7H)-one]	–	B (Category B=SBP in SHRs 20-40 mmHg)	–
105%	27 nM	CC1(c2ccc(OC(F)(F)F)cc2)C(=O)Nc2nc(-c3cn4ccnc4c(CCC(F)(F)C(F)(F)F)n3)nc(N)c21 (stereo not drawn) [Example 234B, 4-amino-5-methyl-2-(8-(3,3,4,4,4-pentafluorobutyl)imidazo [1,2-a]pyrazin-6-yl)-5-(4-(trifluoromethoxy)phenyl)-5H-pyrrolo[2,3-d]pyrimidin-6(7H)-one]	–	A (Category A=SBP in SHRs<20 mmHg)	–
